{"source": "paper PMC3206013", "about": "“Unique Interplay between Sugar and Lipid in Determining the Antigenic Potency of Bacterial Antigens for NKT Cells” (PLoS Biology, 2011)", "assay_in_all_cases": "SPR loading efficiency, L363 Fab on immobilised loaded CD1d", "format_in_all_cases": "binding", "key": {"[1]": {"target": "T1, mCD1d (birA-tag mCD1d/β2m) (Mus musculus, UniProt P11609)", "T1 construct": "gene Cd1d1; soluble glycosylated CD1d/β2m heterodimer, birA tag, biotinylated; with Beta-2-microglobulin", "T1 sequence (P11609 19-297)": "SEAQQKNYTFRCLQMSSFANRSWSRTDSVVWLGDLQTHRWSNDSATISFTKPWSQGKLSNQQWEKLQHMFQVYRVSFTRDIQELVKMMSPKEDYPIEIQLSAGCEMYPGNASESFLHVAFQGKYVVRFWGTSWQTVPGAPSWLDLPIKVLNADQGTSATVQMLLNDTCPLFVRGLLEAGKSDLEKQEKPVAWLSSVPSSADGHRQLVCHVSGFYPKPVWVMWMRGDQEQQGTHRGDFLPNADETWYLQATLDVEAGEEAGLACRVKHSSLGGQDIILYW", "T1 sequence (P01887 21-119 partner)": "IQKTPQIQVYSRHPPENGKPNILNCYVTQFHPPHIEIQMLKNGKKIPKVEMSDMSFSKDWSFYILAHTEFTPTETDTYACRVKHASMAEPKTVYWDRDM", "conditions": "16 h with 1 µg/ml α-GalCer; reference set at 100%"}, "[2]": {"target": "T2, mCD1d (birA-tag mCD1d/β2m) (Mus musculus, UniProt P11609, V167L)", "T2 construct": "gene Cd1d1; soluble glycosylated CD1d/β2m heterodimer, birA tag, biotinylated; with Beta-2-microglobulin", "T2 sequence (P11609 19-297 V167L)": "T1 sequence (P11609 19-297) with V149L", "T2 sequence (P01887 21-119 partner)": "T1 sequence (P01887 21-119 partner)", "conditions": "16 h with 1 µg/ml α-GalCer; WT set at 100%"}, "[3]": {"target": "T3, mCD1d (birA-tag mCD1d/β2m) (Mus musculus, UniProt P11609, L168V)", "T3 construct": "gene Cd1d1; soluble glycosylated CD1d/β2m heterodimer, birA tag, biotinylated; with Beta-2-microglobulin", "T3 sequence (P11609 19-297 L168V)": "T1 sequence (P11609 19-297) with L150V", "T3 sequence (P01887 21-119 partner)": "T1 sequence (P01887 21-119 partner)", "conditions": "16 h with 1 µg/ml α-GalCer; WT set at 100%"}, "[4]": {"target": "T4, mCD1d (birA-tag mCD1d/β2m) (Mus musculus, UniProt P11609, M180A)", "T4 construct": "gene Cd1d1; soluble glycosylated CD1d/β2m heterodimer, birA tag, biotinylated; with Beta-2-microglobulin", "T4 sequence (P11609 19-297 M180A)": "T1 sequence (P11609 19-297) with M162A", "T4 sequence (P01887 21-119 partner)": "T1 sequence (P01887 21-119 partner)", "conditions": "16 h with 1 µg/ml α-GalCer; WT set at 100%; printed Met162Ala and M162A, Met62Ala"}, "[5]": {"target": "T5, mCD1d (birA-tag mCD1d/β2m) (Mus musculus, UniProt P11609, L102F)", "T5 construct": "gene Cd1d1; soluble glycosylated CD1d/β2m heterodimer, birA tag, biotinylated; with Beta-2-microglobulin", "T5 sequence (P11609 19-297 L102F)": "T1 sequence (P11609 19-297) with L84F", "T5 sequence (P01887 21-119 partner)": "T1 sequence (P01887 21-119 partner)", "conditions": "16 h with 1 µg/ml α-GalCer; WT set at 100%; lower than WT but never below 65%"}}, "note": "Changes are numbered by the printed parent chain."}
{"smiles": "CCCCCCCCCCCCCCCCCCCCCCCCCC(=O)N[C@@H](CO[C@H]1O[C@H](CO)[C@H](O)[C@H](O)[C@H]1O)[C@H](O)[C@H](O)CCCCCCCCCCCCCC", "note": "[α-GalCer]", "values": [{"measurement": "antigen loading efficiency, % of WT", "setting": "[1]", "value": "Relative antigen loading efficiencies by the mCD1d mutants as determined by surface plasmon resonance"}, {"measurement": "antigen loading efficiency, % of WT", "setting": "[2]", "value": "we measured the loading efficiency of α-GalCer on each mutant by surface plasmon resonance"}, {"measurement": "antigen loading efficiency, % of WT", "setting": "[3]", "value": "we measured the loading efficiency of α-GalCer on each mutant by surface plasmon resonance"}, {"measurement": "antigen loading efficiency, % of WT", "setting": "[4]", "value": "Leu84Phe and Met62Ala mutants showed lower levels of antigen loading compared to wild type"}, {"measurement": "antigen loading efficiency, % of WT", "setting": "[5]", "value": "Leu84Phe and Met62Ala mutants showed lower levels of antigen loading compared to wild type"}]}
